Test results from article PMC9457740, “GC-MS Chemical Profiling, Biological Investigation of Three Salvia Species Growing in Uzbekistan” (Molecules, 2022).

Assays:
Assay type in all cases: biochemical
[1] = metal chelating assay (EDTA chelating activity); conditions: mean ± S.D.; NA: not active
Text: (§1) Six in vitro assays were employed to evaluate the antioxidant activity of the three Salvia EOs. These were radical scavenging activity using 2,2-diphenyl-1-picryl-hydrazyl (DPPH), 2,2′-azino-bis(3-ethylbenzothiazoline-6-sulfonic acid) (ABTS) radical cation-based assay, total antioxidant capacity using cupric-reducing antioxidant capacity assay (CUPRAC), ferric-reducing antioxidant power assay (FRAP), EDTA chelating activity and phosphomolybdenum (PBD) assay.
(§2) In vitro assays were employed to evaluate the antioxidant activity of the three Salvia EOs using the 2,2-diphenyl-1-picryl-hydrazyl (DPPH), 2,2′-azino-bis(3-ethylbenzothiazoline-6-sulfonic acid) (ABTS) radical-cation-based assay, total antioxidant capacity using cupric-reducing antioxidant capacity assay (CUPRAC), ferric-reducing antioxidant power assay (FRAP), EDTA chelating activity and phosphomolybdenum (PBD) assay. These assays were performed according to previously described standard procedures, and values are expressed as Trolox or EDTA equivalent. The experimental procedures are given in supplemental materials. To provide a comparison with standard compounds, IC50 values (the half inhibitory concentration) were also calculated for DPPH, ABTS and metal chelating assays.

[2] = DPPH radical scavenging assay; conditions: mean ± S.D. of three measurements; NA: not active
Text: as §1, §2

[3] = ABTS radical cation-based assay; conditions: mean ± S.D.
Text: as §1, §2

[4] = cupric-reducing antioxidant capacity assay (CUPRAC); conditions: concentration at which absorbance is 0.5; mean ± S.D.
Text: as §1, §2

[5] = ferric-reducing antioxidant power assay (FRAP); conditions: concentration at which absorbance is 0.5; mean ± S.D.
Text: as §1, §2

[6] = phosphomolybdenum (PBD) assay; conditions: concentration at which absorbance is 0.5; mean ± S.D.
Text: as §1, §2

Row | Structure (SMILES) | Chelating IC50 [1] [µg/mL] | DPPH IC50 [2] [µg/mL] | ABTS IC50 [3] [µg/mL] | CUPRAC IC50 [4] [µg/mL] | FRAP IC50 [5] [µg/mL] | PBD IC50 [6] [µg/mL]
1 | O=C(O)CN(CCN(CC(=O)O)CC(=O)O)CC(=O)O [EDTA] | 40 ± 10 |  |  |  |  | 
2 | Cc1c(C)c2c(c(C)c1O)CCC(C)(C(=O)O)O2 (stereo not drawn) [Trolox] |  | 220 ± 10 | 650 ± 90 | 440 ± 20 | 170 ± 10 | 680 ± 10
